Measurements published in US11957687B2 (REGENERON PHARMACEUTICALS, INC., priority 2019, dated 2024).

Experiments:
HSD17B13 = HSD17B13 (Homo sapiens (Human), UniProt Q7Z5P4); experiment: HSD17B13 enzymatic inhibition assay (150 nM or 50 nM HSD17B13); type: biochemical; conditions: 50 nM HSD17B13; read-out: Inhibition of 50 nM of HSD17B13 IC50
HSD17B1 = HSD17B1 (Homo sapiens (Human), UniProt P14061); experiment: HSD17B1 enzymatic blocking assay; type: biochemical; conditions: 25 μM Estradiol, 500 μM NAD; read-out: Inhibition of HSD17B1 IC50
HSD17B1, sequence (P14061 other isoform, or with tags, fused parts or gaps): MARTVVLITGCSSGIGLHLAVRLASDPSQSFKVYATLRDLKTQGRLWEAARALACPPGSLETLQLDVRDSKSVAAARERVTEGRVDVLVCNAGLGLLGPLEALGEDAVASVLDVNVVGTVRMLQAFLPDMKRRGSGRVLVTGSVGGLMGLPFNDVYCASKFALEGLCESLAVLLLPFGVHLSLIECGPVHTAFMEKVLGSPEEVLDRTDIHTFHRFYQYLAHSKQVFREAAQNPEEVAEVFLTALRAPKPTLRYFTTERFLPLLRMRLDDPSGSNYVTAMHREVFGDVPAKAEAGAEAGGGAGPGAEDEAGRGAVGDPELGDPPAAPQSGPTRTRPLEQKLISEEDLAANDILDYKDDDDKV
How it was run: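 Activity followed as NADH formed on estradiol oxidation, read by NADH-Glo luminescence after 1 h detection in the dark at room temperature. Compounds preincubated with enzyme 30 min at room temperature; 0.5% DMSO and no-substrate controls. IC50 fitted from luminescence.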

HSD17B2 = HSD17B2 (Homo sapiens (Human), UniProt P37059); experiment: HSD17B2 enzymatic blocking assay; type: biochemical; conditions: 1.8 μM Estradiol, 650 μM NAD; read-out: Inhibition of HSD17B2 IC50
HSD17B2, sequence (P37059 other isoform, or with tags, fused parts or gaps): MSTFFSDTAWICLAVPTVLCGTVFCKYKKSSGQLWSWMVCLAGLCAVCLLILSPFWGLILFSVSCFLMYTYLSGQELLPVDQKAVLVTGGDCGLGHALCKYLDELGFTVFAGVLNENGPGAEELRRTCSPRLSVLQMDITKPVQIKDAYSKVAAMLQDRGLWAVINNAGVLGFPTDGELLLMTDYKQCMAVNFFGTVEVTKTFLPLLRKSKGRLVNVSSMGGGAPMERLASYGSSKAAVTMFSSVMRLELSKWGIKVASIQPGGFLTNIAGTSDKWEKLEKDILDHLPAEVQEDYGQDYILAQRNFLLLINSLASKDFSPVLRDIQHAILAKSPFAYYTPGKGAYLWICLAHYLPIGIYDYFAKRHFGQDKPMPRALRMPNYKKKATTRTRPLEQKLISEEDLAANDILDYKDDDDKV
How it was run: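 Mammalian-expressed enzyme at 2 ng/μL in 50 mM Tris-HCl pH 7.5 with detergents/BSA, preincubated 15 min at 20° C. with compound (10-point titration). Reaction with 1.8 μM estradiol and 650 μM NAD ran 45 min at 20° C.; NADH measured by NADH-Glo luminescence and IC50 derived.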

HSD17B4 = HSD17B4 (Homo sapiens (Human), UniProt P51659); experiment: HSD17B4 enzymatic blocking assay; type: biochemical; conditions: 23.46 μM Estradiol, 1500 μM NAD; read-out: Inhibition of HSD17B4 IC50
HSD17B4, sequence (P51659 other isoform, or with tags, fused parts or gaps): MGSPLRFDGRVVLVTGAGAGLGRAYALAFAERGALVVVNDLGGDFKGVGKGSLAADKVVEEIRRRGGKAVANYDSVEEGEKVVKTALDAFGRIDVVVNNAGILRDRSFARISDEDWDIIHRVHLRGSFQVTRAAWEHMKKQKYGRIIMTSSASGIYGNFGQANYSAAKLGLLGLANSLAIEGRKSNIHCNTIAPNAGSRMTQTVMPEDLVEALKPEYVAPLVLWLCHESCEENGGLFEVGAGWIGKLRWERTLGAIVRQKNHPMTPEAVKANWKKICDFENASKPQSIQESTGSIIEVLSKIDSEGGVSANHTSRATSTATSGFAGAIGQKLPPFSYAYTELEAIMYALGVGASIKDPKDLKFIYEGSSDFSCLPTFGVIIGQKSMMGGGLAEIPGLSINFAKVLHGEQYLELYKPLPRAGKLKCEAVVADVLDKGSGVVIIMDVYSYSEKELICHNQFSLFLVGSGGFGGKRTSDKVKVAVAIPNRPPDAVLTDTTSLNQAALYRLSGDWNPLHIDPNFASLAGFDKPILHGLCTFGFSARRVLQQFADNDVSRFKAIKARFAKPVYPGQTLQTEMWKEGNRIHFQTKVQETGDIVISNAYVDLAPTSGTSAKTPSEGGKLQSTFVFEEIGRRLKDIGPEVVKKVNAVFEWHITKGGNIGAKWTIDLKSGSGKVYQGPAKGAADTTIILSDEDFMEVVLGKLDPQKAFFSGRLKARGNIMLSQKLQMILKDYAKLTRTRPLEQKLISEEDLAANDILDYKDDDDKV
Description: To screen compounds of the disclosure for their ability to block HSD17B4 function, an enzymatic blocking assay was performed. For the assay, HSD17B4 activity was measured by detecting NADH formation from oxidation of Estradiol using a NADH Glo luminescence assay (Promega, #Cat. No. G9062). Compounds of the disclosure were evaluated in a dose titration assay where the compounds were titrated at 10-point dose curve using an Echo-555 liquid handling dispenser. HSD17B4 (SEQ ID NO: 4, expressed in mammalian cells) was added at a final concentration of 2.5 ng/μL in a buffer containing 50 mM Tris-HCl, pH 7.5, Pluronic F-127 0.05%, Tween20 0.01%, BSA 0.01%, into a low volume white 384-well assay plate. Compounds were incubated with the enzyme for 15 min at 20° C. The assay reaction was then initiated by addition of 23.46 μM Estradiol substrate (Sigma, catalog #E2758-250MG, CAS: 50-28-2) and 1500 μM NAD co-factor, and the reaction mixture was incubated for 45 min at 20° C. DMSO at a concentration of 0.5% was used as a negative control and a ‘no substrate’ control was used a positive control in the assay. Detection reagent was then added as per manufacturer's instructions, and the plate was subsequently incubated in the dark for 1 hour at room temperature, NADH generated was detected in the luminescence mode on the Envision Perkin Elmer plate reader. The IC50 values were determined using Dotmatics analysis software.

HSD17B10 = HSD17B10 (Homo sapiens (Human), UniProt Q99714); experiment: HSD17B10 enzymatic blocking assay; type: biochemical; conditions: 25 μM Estradiol, 500 μM NAD; read-out: Inhibition of HSD17B10 IC50
HSD17B10, sequence (Q99714 other isoform, or with tags, fused parts or gaps): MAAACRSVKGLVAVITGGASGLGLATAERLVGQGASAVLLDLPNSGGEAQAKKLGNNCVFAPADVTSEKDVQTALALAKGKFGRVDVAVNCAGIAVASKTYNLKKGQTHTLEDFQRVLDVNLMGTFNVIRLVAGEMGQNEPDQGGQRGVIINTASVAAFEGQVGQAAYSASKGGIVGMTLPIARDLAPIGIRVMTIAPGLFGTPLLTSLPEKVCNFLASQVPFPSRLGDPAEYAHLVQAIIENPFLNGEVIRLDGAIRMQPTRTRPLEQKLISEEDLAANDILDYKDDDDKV
Description: To screen compounds of the disclosure for their ability to block HSD17B10 function, an enzymatic blocking assay was performed. For the assay, HSD17B10 activity was measured by detecting NADH formation from oxidation of Estradiol using a NADH Glo luminescence assay (Promega, #Cat. No. G9062). Compounds of the disclosure were evaluated in a dose titration assay where the compounds were titrated at 10-point dose curve using an Echo-555 liquid handling dispenser. HSD17B10 (Seq. ID NO: 5, expressed in mammalian cells) was added at a final concentration of 31.25 ng/well in a buffer containing 0.2M Tris-HCl, pH 7.5, into a low volume white 384-well assay plate. Compounds were incubated with the enzyme for 30 minutes at room temperature. The assay reaction was then initiated by addition of 25 μM Estradiol substrate (Sigma, catalog #E2758-250MG, CAS: 50-28-2) and 500 μM NAD co-factor, and the reaction mixture was incubated for 3 hours at room temperature. DMSO at a concentration of 0.5% was used as a negative control and a ‘no substrate’ control was used a positive control in the assay. Detection reagent was then added as per manufacturer's instructions, and the plate was subsequently incubated in the dark for 1 hour at room temperature, NADH generated was detected in the luminescence mode on the Envision Perkin Elmer plate reader. The IC50 values were determined using Dotmatics analysis software.

[1] = Microsome stability assay, human liver microsomes; type: in vitro ADME; conditions: 1 μM compound, 0.5 mg/mL microsomal protein
How it was run: (§1)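 Compound at 1 μM incubated at 37° C with pooled human or mouse liver microsomes (0.5 mg/mL protein) plus NADPH regenerating system, sampled at 0–60 min; a 60-min no-NADPH incubation also included. Single replicate; LC/MS/MS disappearance from analyte/internal standard peak area ratios, without standard curve.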

[2] = Microsome stability assay, mouse liver microsomes; type: in vitro ADME; conditions: 1 μM compound, 0.5 mg/mL microsomal protein; for microsomal CLint at 1 μM / half-life at 1 μM / microsomal CLint at 1 h, 1 µM / half-life at 1 h, 1 µM: mouse, mouse liver microsomes, pooled, NADPH, 37° C.; for microsomal CLint at 1 μM / microsomal CLint at 1 h, 1 µM: read-out: Microsome Stability Mouse liver microsomes Cl; for half-life at 1 μM / half-life at 1 h, 1 µM: read-out: Microsome Stability Mouse liver microsomes T½
How it was run: as §1

[3] = human, human liver microsomes, pooled, NADPH, 37° C., read-out: Microsome Stability Human liver microsomes Cl
[4] = human, human liver microsomes, pooled, NADPH, 37° C., read-out: Microsome Stability Human liver microsomes T½

HSD17B13, sequence (Q7Z5P4 other isoform, or with tags, fused parts or gaps): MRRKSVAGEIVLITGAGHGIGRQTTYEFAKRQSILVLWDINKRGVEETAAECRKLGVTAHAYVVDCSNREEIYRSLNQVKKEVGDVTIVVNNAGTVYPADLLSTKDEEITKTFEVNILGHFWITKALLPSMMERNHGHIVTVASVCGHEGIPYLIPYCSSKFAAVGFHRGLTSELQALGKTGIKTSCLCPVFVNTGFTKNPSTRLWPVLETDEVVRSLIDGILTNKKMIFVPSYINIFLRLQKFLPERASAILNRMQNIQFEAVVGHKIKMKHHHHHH

Row | Structure (SMILES) | IC50 (HSD17B13) [nM] | IC50 (HSD17B1) [µM] | IC50 (HSD17B2) [µM] | IC50 (HSD17B4) [µM] | IC50 (HSD17B10) [µM] | Microsome Stability Human liver microsomes % Remaining @60 min [1] [%] | microsomal CLint at 1 μM [1, 3] [µL/min/mg] | half-life at 1 μM [1, 4] [min] | Microsome Stability Mouse liver microsomes % Remaining @60 min [2] [%] | microsomal CLint at 1 μM [2] [µL/min/mg] | half-life at 1 μM [2] [min] | microsomal CLint at 1 h, 1 µM [2] [µL/min/mg] | half-life at 1 h, 1 µM [2] [min] | microsomal CLint at 1 h, 1 µM [1, 3] [µL/min/mg] | half-life at 1 h, 1 µM [1, 4] [min]
1 | O=C(NC1c2ccccc2Oc2cc(Cl)ccc21)c1ccc(C(F)(F)F)[nH]c1=O (stereo not drawn) [Compound 15A, N-(3-chloro-9H-xanthen-9-yl)-2-oxo-6-(trifluoromethyl)-1,2-dihydropyridine-3-carboxamide] | 160 | 3.9 | 6.33 | > 100 | > 30 | – | – | – | – | – | – | – | – | – | –
2 | O=C(NC1c2ccc(Cl)cc2Oc2cc(Cl)ccc21)c1ccc(C(F)(F)F)[nH]c1=O [Compound 50, N-(3,6-dichloro-9H-xanthen-9-yl)-2-oxo-6-(trifluoromethyl)-1,2-dihydropyridine-3-carboxamide] | 120 | 4.22 | 5.16 | > 100 | > 30 | 101.00 | < 9.6 | > 145 | 97.70 | < 9.6 | > 145 | – | – | – | –
3 | Cc1ccc2c(c1)Oc1cccc(C)c1C2NC(=O)c1ccc(C(F)(F)F)[nH]c1=O (stereo not drawn) [Compound 53, N-(1,6-dimethyl-9H-xanthen-9-yl)-2-oxo-6-(trifluoromethyl)-1,2-dihydropyridine-3-carboxamide] | 310 | 3.69 | 10.7 | 47.1 | > 30 | – | – | – | – | – | – | – | – | – | –
4 | Cc1ccc2c(c1)Oc1ccccc1C2NC(=O)c1ccc(C(F)(F)F)[nH]c1=O (stereo not drawn) [Compound 55, N-(3-methyl-9H-xanthen-9-yl)-2-oxo-6-(trifluoromethyl)-1,2-dihydropyridine-3-carboxamide] | 180 | 4.65 | 9.15 | > 100 | > 30 | – | – | – | – | – | – | – | – | – | –
5 | O=C(NC(c1ccccc1)c1ccc2c(c1)CCCC2)c1ccc(C(F)(F)F)[nH]c1=O (stereo not drawn) [Compound 80, N-(phenyl(5,6,7,8-tetrahydronaphthalen-2-yl)methyl)-2-oxo-6-(trifluoromethyl)-1,2-dihydropyridine-3-carboxamide] | 360 | 3.65 | 8.91 | 48.7 | > 30 | – | – | – | – | – | – | – | – | – | –
6 | O=C(NC(c1ccccc1)c1ccc(-c2cccnc2)cc1)c1ccc(C(F)(F)F)[nH]c1=O (stereo not drawn) [Compound 93, N-(phenyl(4-(pyridin-3-yl)phenyl)methyl)-2-oxo-6-(trifluoromethyl)-1,2-dihydropyridine-3-carboxamide] | 600 | 15.6 | 10.7 | 66.2 | > 30 | – | – | – | – | – | – | – | – | – | –
7 | O=C(NC(c1ccccc1)c1ccc2c(c1)COC2)c1ccc(C(F)(F)F)[nH]c1=O (stereo not drawn) [Compound 94, N-((1,3-dihydroisobenzofuran-5-yl)(phenyl)methyl)-2-oxo-6-(trifluoromethyl)-1,2-dihydropyridine-3-carboxamide] | – | 11.3 | 18.8 | 96.6 | > 30 | – | – | – | – | – | – | – | – | – | –
8 | Cc1ccc(C(NC(=O)c2cc(C)c(C(F)(F)F)[nH]c2=O)c2ccc(C)cc2)cc1 [Compound 115, N-(di-p-tolylmethyl)-5-methyl-2-oxo-6-(trifluoromethyl)-1,2-dihydropyridine-3-carboxamide] | 450 | 11.2 | 11 | > 100 | > 30 | – | – | – | – | – | – | – | – | – | –
9 | Cc1ccc2c(c1)Oc1ccccc1C2NC(=O)c1c(C)cc(C(F)(F)F)[nH]c1=O (stereo not drawn) [Compound 198, 4-methyl-N-(3-methyl-9H-xanthen-9-yl)-2-oxo-6-(trifluoromethyl)-1,2-dihydropyridine-3-carboxamide] | 400 | > 30 | > 100 | > 100 | > 30 | – | – | – | – | – | – | – | – | – | –

The next lines start with the values.

Row | IC50 (HSD17B13) [nM] | IC50 (HSD17B1) [µM] | IC50 (HSD17B2) [µM] | IC50 (HSD17B4) [µM] | IC50 (HSD17B10) [µM] | Microsome Stability Human liver microsomes % Remaining @60 min [1] [%] | microsomal CLint at 1 μM [1, 3] [µL/min/mg] | half-life at 1 μM [1, 4] [min] | Microsome Stability Mouse liver microsomes % Remaining @60 min [2] [%] | microsomal CLint at 1 μM [2] [µL/min/mg] | half-life at 1 μM [2] [min] | microsomal CLint at 1 h, 1 µM [2] [µL/min/mg] | half-life at 1 h, 1 µM [2] [min] | microsomal CLint at 1 h, 1 µM [1, 3] [µL/min/mg] | half-life at 1 h, 1 µM [1, 4] [min] | Structure (SMILES)
10 | 200 | 3.53 | 10.7 | 54.2 | > 30 | – | – | – | – | – | – | – | – | – | – | CCc1ccc2c(c1)Oc1ccccc1C2NC(=O)c1ccc(C(F)(F)F)[nH]c1=O (stereo not drawn) [Compound 140, N-(3-ethyl-9H-xanthen-9-yl)-2-oxo-6-(trifluoromethyl)-1,2-dihydropyridine-3-carboxamide]
11 | 360 | 3.62 | 7.3 | 58.2 | > 30 | – | – | – | – | – | – | – | – | – | – | O=C(NC1c2ccccc2Oc2cc(CC(F)(F)F)ccc21)c1ccc(C(F)(F)F)[nH]c1=O (stereo not drawn) [Compound 141, 2-oxo-N-(3-(2,2,2-trifluoroethyl)-9H-xanthen-9-yl)-6-(trifluoromethyl)-1,2-dihydropyridine-3-carboxamide]
12 | 2190 | > 30 | 11.2 | – | – | 45 | 26.4 | 52.5 | 74 | – | – | 10.2 | 135 | – | – | Cc1ccc2c(c1)OCCC2NC(=O)c1ccc(C(F)(F)F)[nH]c1=O (stereo not drawn) [Compound 441, N-(7-methylchroman-4-yl)-2-oxo-6-(trifluoromethyl)-1,2-dihydropyridine-3-carboxamide]
13 | 590 | > 30 | 16.1 | – | – | 1 | – | – | 1.60 | – | – | 140 | 9.87 | 203 | 6.83 | Cc1cccc(C(NC(=O)c2ccc(C(F)(F)F)[nH]c2=O)c2ccccc2)c1 (stereo not drawn) [Compound 490, 2-oxo-N-(phenyl(m-tolyl)methyl)-6-(trifluoromethyl)-1,2-dihydropyridine-3-carboxamide]
14 | 680 | > 30 | 72.7 | – | – | 88.90 | < 9.6 | > 145 | 90.20 | < 9.6 | > 145 | – | – | – | – | Nc1cccc2c1CCCC2NC(=O)c1ccc(C(F)(F)F)[nH]c1=O (stereo not drawn) [Compound 533, N-(5-amino-1,2,3,4-tetrahydronaphthalen-1-yl)-2-oxo-6-(trifluoromethyl)-1,2-dihydropyridine-3-carboxamide]
